Measured values published in patent US9884839B2, “Inhibitors of 17Beta-hydroxysteroid dehydrogenases type 1 and type 2” (ElexoPharm GmbH, priority 2014, dated 2018).
Like-named read-outs stand apart in the source and are kept apart here.

Key:
Assay type in all cases: biochemical
human 17β-HSD1 = biological target: T1, human 17β-HSD1 (Homo sapiens, UniProt P14061); experiment: Inhibition of human 17β-HSD1 (conversion of [3H]-E1 to E2, HPLC radioflow detection); conditions: for IC50: read-out: IC50 [nM] h17β-HSD1; for inhibition at 1 µM: read-out: % inhibition h17β-HSD1 @ 1 μM; for inhibition at 0.01 µM: read-out: % inhibition h17β-HSD1 @ 10 nM
T1 construct: For the partial purification of 17β-HSD1, the cytosolic fraction was precipitated with ammonium sulfate; from tissue; host or cells: human placenta, cytosolic fraction, ammonium sulfate precipitate
T1 sequence (P14061 1-328): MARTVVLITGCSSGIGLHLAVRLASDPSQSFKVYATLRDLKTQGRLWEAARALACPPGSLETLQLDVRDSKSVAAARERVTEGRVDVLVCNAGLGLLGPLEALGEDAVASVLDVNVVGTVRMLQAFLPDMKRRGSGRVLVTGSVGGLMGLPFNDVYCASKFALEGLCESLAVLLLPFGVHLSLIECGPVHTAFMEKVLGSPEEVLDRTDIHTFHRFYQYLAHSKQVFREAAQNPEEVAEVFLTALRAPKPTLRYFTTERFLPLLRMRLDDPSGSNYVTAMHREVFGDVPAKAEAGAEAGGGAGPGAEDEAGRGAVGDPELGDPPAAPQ

human 17β-HSD2 = biological target: T2, human 17β-HSD2 (Homo sapiens, UniProt P37059); experiment: Inhibition of human 17β-HSD2 (conversion of [3H]-E2 to E1); conditions: for IC50: read-out: IC50 [nM] h17β-HSD2; for inhibition at 1 µM: read-out: % inhibition h17β-HSD2 @ 1 μM; for inhibition at 0.01 µM: read-out: % inhibition h17β-HSD2 @ 10 nM
T2 construct: 17β-HSD2 was obtained from the microsomal fraction; from tissue; host or cells: human placenta, microsomal fraction
T2 sequence (P37059 1-387): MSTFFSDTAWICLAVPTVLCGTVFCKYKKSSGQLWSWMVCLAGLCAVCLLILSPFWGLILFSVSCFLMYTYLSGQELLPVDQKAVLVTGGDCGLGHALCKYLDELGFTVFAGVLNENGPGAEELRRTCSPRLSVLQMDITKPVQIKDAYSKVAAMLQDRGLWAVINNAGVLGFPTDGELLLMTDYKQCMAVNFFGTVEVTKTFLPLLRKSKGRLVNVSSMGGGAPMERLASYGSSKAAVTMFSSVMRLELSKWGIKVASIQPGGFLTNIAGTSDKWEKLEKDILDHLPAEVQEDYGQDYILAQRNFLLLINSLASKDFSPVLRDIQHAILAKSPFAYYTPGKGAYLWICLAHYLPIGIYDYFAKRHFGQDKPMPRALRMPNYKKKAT
Protocol: Fresh human placenta was homogenized, and cytosolic fraction and microsomes were separated by differential centrifugation at 1,000 g, 10,000 g and 150,000 g.
(§1) The conversion rate was calculated after analysis of the resulting chromatograms according to the following equation: % conversion=[% E1/(% E1+% E2)]×100

mouse 17β-HSD1 = biological target: T3, mouse 17β-HSD1 (Mus musculus, UniProt P51656); experiment: Inhibition of mouse 17β-HSD1 (recombinant, HEK293 lysate)
T3 construct: made in house; host or cells: HEK293 cells, transient transfection; 1,000 g supernatant of the cell lysate
T3 sequence (P51656 1-344): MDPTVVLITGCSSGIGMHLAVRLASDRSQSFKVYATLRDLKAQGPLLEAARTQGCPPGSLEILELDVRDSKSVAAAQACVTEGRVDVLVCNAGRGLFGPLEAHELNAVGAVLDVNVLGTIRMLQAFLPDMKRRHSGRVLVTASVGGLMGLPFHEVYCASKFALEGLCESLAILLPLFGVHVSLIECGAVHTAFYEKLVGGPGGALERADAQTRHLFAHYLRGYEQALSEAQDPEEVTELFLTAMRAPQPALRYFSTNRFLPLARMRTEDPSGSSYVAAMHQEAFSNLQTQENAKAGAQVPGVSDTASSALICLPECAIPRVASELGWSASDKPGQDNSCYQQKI

mouse 17β-HSD2 = biological target: T4, mouse 17β-HSD2 (Mus musculus, UniProt P51658); experiment: Inhibition of mouse 17β-HSD2 (liver microsomal fraction); conditions: for inhibition at 0.05 µM: read-out: % inhibition m17β-HSD2 @ 50 nM
T4 construct: The pellet fractions containing the microsomal 17β-HSD2 were used for the determination of E1 formation; from tissue; host or cells: mouse liver, microsomal fraction
T4 sequence (P51658 1-381): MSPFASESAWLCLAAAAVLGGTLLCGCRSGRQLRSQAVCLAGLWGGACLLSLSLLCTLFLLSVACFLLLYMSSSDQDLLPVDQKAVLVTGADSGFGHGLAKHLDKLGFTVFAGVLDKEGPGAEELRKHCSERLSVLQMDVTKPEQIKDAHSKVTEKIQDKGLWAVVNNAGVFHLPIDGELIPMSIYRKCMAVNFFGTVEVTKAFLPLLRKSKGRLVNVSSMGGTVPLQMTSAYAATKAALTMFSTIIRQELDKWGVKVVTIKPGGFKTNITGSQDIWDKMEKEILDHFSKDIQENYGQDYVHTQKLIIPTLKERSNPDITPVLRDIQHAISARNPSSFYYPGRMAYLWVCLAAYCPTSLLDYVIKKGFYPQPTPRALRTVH
Protocol: Microsomal 17β-HSD2 fractions were obtained from mouse or rat liver. Fresh liver tissues were processed as described for the human placental 17β-HSD2 preparation. The pellet fractions containing the microsomal 17β-HSD2 were used for the determination of E1 formation.
as §1

[1] = human placental cytosolic enzyme, E1 500 nM, NADH, Tables 1, 4-11
[2] = read-out: % inhibition m17β-HSD1 @ 1 μM
[3] = read-out: % inhibition m17β-HSD2 @ 1 μM
[4] = read-out: Inhibition @ 1 μM m17β-HSD1
[5] = read-out: Inhibition @ 1 μM m17β-HSD2

IC50 (human 17β-HSD1; [1])	IC50 (human 17β-HSD2)	inhibition at 1 µM (mouse 17β-HSD1; [4])	inhibition at 1 µM (mouse 17β-HSD2; [5])	SMILES	further results
3430 nM	300 nM			Cc1c(O)cccc1C(=O)c1ccc(-c2ccc(F)cc2F)s1 [B, reference compound]	inhibition at 1 µM (mouse 17β-HSD1; [2]): 5%; inhibition at 1 µM (mouse 17β-HSD2; [3]): 18%
130 nM	27 nM	11%	44%	O=C(c1ccc(Br)s1)c1cc(F)c(F)c(O)c1F [Compound 1g, (5-Bromo-thiophen-2-yl)-(2,4,5-trifluoro-3-hydroxy-phenyl)-methanone]	inhibition at 1 µM (mouse 17β-HSD1; [2]): 11%; inhibition at 1 µM (mouse 17β-HSD2; [3]): 44%
		14%	23%	O=C(c1ccc(-c2cccnc2)s1)c1c(F)ccc(O)c1F [Compound 9, (2,6-Difluoro-3-hydroxy-phenyl)-(5-pyridin-3-yl-thiophen-2-yl)-methanone]	inhibition at 1 µM (human 17β-HSD1): 57%; inhibition at 1 µM (human 17β-HSD2): 64%
5.5 nM	52 nM	25%	65%	COc1ccc(-c2sc(C(=O)c3c(F)ccc(O)c3F)cc2C)cc1Cl [Compound 13, [5-(3-Chloro-4-methoxy-phenyl)-4-methyl-thiophen-2-yl]-(2,6-difluoro-3-hydroxy-phenyl)-methanone]	
7 nM	36 nM	47%	74%	O=C(c1ccc(-c2cc(F)c(OC(F)F)c(F)c2)s1)c1c(F)ccc(O)c1F [Compound 17, (2,6-Difluoro-3-hydroxy-phenyl)-[5-(4-difluoromethoxy-3,5-difluoro-phenyl)-thiophen-2-yl]-methanone]	
	29 nM	46%	82%	O=C(c1ccc(-c2cccc(Cl)c2O)s1)c1c(F)ccc(O)c1F [Compound 22, [5-(3-Chloro-2-hydroxy-phenyl)-thiophen-2-yl]-(2,6-difluoro-3-hydroxy-phenyl)-methanone]	IC50 (human 17β-HSD1): 27 nM
	21 nM	37%	45%	COc1c(Cl)cc(-c2ccc(C(=O)c3c(F)ccc(O)c3F)s2)cc1CN1CCN(C(C)=O)CC1 [Compound 28, 1-(4-{3-Chloro-5-[5-(2,6-difluoro-3-hydroxy-benzoyl)-thiophen-2-yl]-2-methoxy-benzyl}-piperazin-1-yl)-ethanone]	IC50 (human 17β-HSD1): 1.4 nM
		20%		COc1c(Cl)cc(-c2ccc(C(=O)c3c(F)ccc(OC(C)=O)c3F)s2)cc1Cn1ccnn1 [Compound 31a, Acetic acid 3-[5-(3-chloro-4-methoxy-5-[1,2,3]triazol-1-ylmethyl-phenyl)-thiophene-2-carbonyl]-2,4-difluoro-phenylester]	inhibition at 1 µM (human 17β-HSD1): 28%; inhibition at 1 µM (human 17β-HSD2): 32%
9.1 nM	11.2 nM	13.8%		O=C(c1ccc(-c2cc(Cl)c(O)c(Cl)c2)s1)c1cc(F)c(F)c(O)c1F [Compound 49, (5-(3,5-Dichloro-4-hydroxyphenyl)thiophen-2-yl)(2,4,5-trifluoro-3-hydroxyphenyl)methanone]	
				NS(=O)(=O)c1ccc(-c2ccc(C(=O)c3c(F)ccc(O)c3F)s2)cc1 [Compound 75, 4-(5-(2,6-Difluoro-3-hydroxybenzoyl)thiophen-2-yl)benzenesulfonamide]	inhibition at 0.01 µM (human 17β-HSD1): 18%; inhibition at 0.01 µM (human 17β-HSD2): 54%; inhibition at 0.05 µM (mouse 17β-HSD2): 10%
				NS(=O)(=O)c1cccc(-c2ccc(C(=O)c3c(F)ccc(O)c3F)s2)c1 [Compound 76, 3-(5-(2,6-Difluoro-3-hydroxybenzoyl)thiophen-2-yl)benzenesulfonamide]	inhibition at 0.01 µM (human 17β-HSD1): 34%; inhibition at 0.01 µM (human 17β-HSD2): 26%; inhibition at 0.05 µM (mouse 17β-HSD2): 1.8%
				COc1c(Cl)cc(-c2ccc(C(=O)c3c(F)ccc(O)c3Cl)s2)cc1Cl [Compound 78, (2-Chloro-6-fluoro-3-hydroxyphenyl)(5-(3,5-dichloro-4-methoxyphenyl)thiophen-2-yl)methanone]	inhibition at 0.01 µM (human 17β-HSD1): 41%; inhibition at 0.01 µM (human 17β-HSD2): 54%; inhibition at 0.05 µM (mouse 17β-HSD2): 76%
